{
  "source": "patent US5753631A",
  "about": "“Intercellular adhesion mediators” (Cytel Corporation, priority 1995, dated 1998)",
  "key": {"[1]": {"test_system": "CVF-induced acute lung injury", "test": "Cobra venom factor (CVF)-induced acute lung injury in the rat", "format": "in vivo", "conditions": "200 μg prior to CVF (FIG. 16: 0.6 mg/Kg)", "description": "Groups of rats were pretreated with either vehicle, SLN-OH (0.6 mg/Kg), or with SLX-OH (0.6 mg/Kg) 5 minutes prior to administration of either CVF or PBS. Each bar represents the mean of 6 animals and vertical lines represent the standard error of the mean.\nGroups of rats were pretreated with either vehicle or Z at the indicated doses 5 minutes prior to administration of CVF or PBS. Each point represents the mean of 6 animals and vertical lines represent the standard error of the mean.\nThe intravenous injection of CVF produces intravascular complement activation which results in lung injury, defined as an increase in neutrophil accumulation within the lung, an increase in pulmonary vascular permeability and in lung hemorrhage. It is likely that intravascular complement activation results in the generation of a wide range of inflammatory mediators. Of particular relevance to the studies described here is generation of the split fifth complement component, C5a, which can stimulate the release of histamine from circulating basophils and tissue mast cells. […] The expression of selectins, including P-selectin, is a necessary first step in the process of leukocyte adherence to vascular endothelium.\nAnimals were dosed with different oligosaccharide preparations or phosphate buffered saline (PBS) five minutes before administration of cobra venom factor (20 units/Kg, i.v.). Included in this material was an aliquot of ^125 I-bovine serum albumin (0.5 μCi) and ^51 Cr labelled autologous red blood cells (0.5 μCi) for measuring plasma extravasation and hemorrhage respectively. Thirty minutes after administration of the cobra venom factor the animals were anesthetized with ketamine hydrochloride (10 mg/Kg) and exsanguinated via the posterior vena cava. The lung vasculature was then perfused through the right cardiac ventricle with 10 mL of PBS. The lungs were removed and the amount of radioactivity remaining within the tissue assessed with a gamma scintillation counter. Increased pulmonary vascular permeability was measured as the ratio of ^125 I in lung tissue compared with the amount present in 1 mL of venous blood obtained at the time of death. Lung hemorrhage was measured as the ratio of ^51 Cr in lung tissue compared with the amount present in 1 mL of venous blood obtained at the time of death. Neutrophil accumulation in lungs was determined by measuring the myeloperoxidase activity of lungs homogenized in PBS. Myeloperoxidase activity in lung supernatants was assayed by measuring the change in absorbance at 460 nm resulting from decomposition of H2 O2 in the presence of o-dianisidine"}, "[2]": {"test_system": "IgG immune complex-induced acute lung injury", "test": "IgG immune complex-induced acute lung injury in the rat", "format": "in vivo, rat (male Long-Evans)", "conditions": "conclusion in words"}, "[3]": {"test_system": "IgA immune complex induced lung injury", "test": "IgA immune complex-induced acute lung injury in the rat", "format": "in vivo, rat (male Long-Evans)", "description": "Groups of rats were dosed with either vehicle, SLN-OH (100 μpg), or with SLX-OH (100 μg) […] post induction of inflammation. Each bar represents the mean of 6 animals and vertical lines represent the standard error of the mean.\nAdult male (300 g) specific pathogen-free Long-Evans rats purchased from Charles River Labs (Portage, Mich.) were employed in the studies. For the induction of IgG immune complex pulmonary inflammation rabbit polyclonal IgG rich in antibody to bovine serum albumin (antiBSA) was purchased from Organon Teknika (Westchester, PA). Intraperitoneal ketamine (10 mg/Kg) was administered for anesthesia. 2.5 mg of anti-BSA in a volume of 300 μl was instilled intratracheally via a small intratracheal catheter during inspiration after surgical exposure of the trachea. Intravenous injection of 10 mg BSA was injected intravenously to generate immune complex formation. Trace amounts of ^125 I-BSA and ^51 Cr-RBC were administered with the BSA as markers for plasma and RBC extravasation respectively. Rats were sacrificed 4 h later and lung injury was assessed by the ratio of radiolabelled albumin in the lungs relative to the circulation (permeability), the ratio of RBC in the lungs relative to the circulation (hemorrhage) and the amount of myeloperoxidase activity in a lung homogenate (neutrophil accumulation). For induction of IgA immune complex induced lung injury 1.2 mg of a murine myeloma IgA protein specific for dinitrophenol (DNP) was instilled intratracheally and 3.3 mg DNP-bovine serum albumin injected intravenously. Lung injury was assessed in the same manner described for IgG-induced lung injury.\nSLX-OH, Z, the non-fucosylated control oligosaccharide SLN, or an equivalent volume of PBS were injected intravenously in three equally divided doses at 2, 2.5, and 3 h following deposition of immune complexes. This schedule for injections was selected since it coincides with the time during which rapid expression of E-selectin occurs in the pulmonary vasculature."}, "[4]": {"target": "T1, E-Selectin (Homo sapiens, UniProt P16581)", "T1 construct": "adhesion of HL-60 cells", "T1 sequence (P16581 22-610)": "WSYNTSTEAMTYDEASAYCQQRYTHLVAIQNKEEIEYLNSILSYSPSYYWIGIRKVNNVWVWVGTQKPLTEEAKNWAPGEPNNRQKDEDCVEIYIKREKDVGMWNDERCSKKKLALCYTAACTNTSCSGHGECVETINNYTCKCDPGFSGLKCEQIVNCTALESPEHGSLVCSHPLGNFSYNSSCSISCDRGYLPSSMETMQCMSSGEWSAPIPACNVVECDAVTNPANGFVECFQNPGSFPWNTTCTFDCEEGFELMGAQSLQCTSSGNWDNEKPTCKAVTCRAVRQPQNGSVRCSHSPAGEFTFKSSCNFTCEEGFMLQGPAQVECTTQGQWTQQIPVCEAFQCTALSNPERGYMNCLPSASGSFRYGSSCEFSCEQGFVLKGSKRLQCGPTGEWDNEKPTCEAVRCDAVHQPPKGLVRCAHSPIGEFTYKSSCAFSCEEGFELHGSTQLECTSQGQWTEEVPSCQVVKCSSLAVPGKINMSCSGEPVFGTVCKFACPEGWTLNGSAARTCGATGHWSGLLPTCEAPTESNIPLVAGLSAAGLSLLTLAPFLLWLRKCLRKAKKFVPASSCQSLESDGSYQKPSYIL", "test": "Glycolipid liposome inhibition of HL-60 cell adhesion to IL-1β activated endothelial cells", "format": "cell-based", "conditions": "liposomes; for inhibition of adhesion of HL-60 cells to activated endothelial cells: 4° C. (FIG. 5); for reduction of HL-60 cell adhesion to activated endothelial cells: 37° C.", "description": "This Example describes the preparation of liposomes which contain various biosynthetically produced glycosphingolipids on which the terminal carbohydrate units are either SLe^x, Le^x, or similar but not identical compounds. The ability of the liposomes which contain SLe^x or SLe^x mimetics to block the binding of SLe^x -expressing HL-60 cells and LEC11 cells to endothelial cells that have been stimulated to express E-Selectin by treatment with IL-1β is shown.\nMaterials: The glycosphingolipids used in this experiment are shown in Table I; they were obtained from the Biomembrane Institute, Seattle, Wash., and were either purified or biosynthetically produced and characterized by NMR and mass spectrometry, as generally described in Hakomori, S. I., et al., J. Biol. Chem., 259:4672 (1984), and Fukushi Y., et al., J. Biol. Chem. 259:10511 (1984), incorporated by reference herein. […] Nonsialylated diLex was similarly synthesized using nLc6 as substrate and the cell line NCI H-69. See Holmes et al., J. Biol. Chem. 260:7619 (1985), incorporated by reference herein. SPG and SH were purified from bovine red blood cells, and nLc6 was produced by chemical removal of the terminal sialosyl residue from SH.\nLiposomes containing the glycosphingolipids were formed as follows: 100 μg of glycolipid was added to 300 μg phosphatidylcholine (Sigma, egg yolk) and 500 μg cholesterol (Sigma) in chloroform-methanol (2:1) and the whole solution evaporated to dryness by N2 in 15 ml screwcap tubes.\nPassage 3 HUVEC, which had been grown to confluence on a gelatin coated 48 well assay plate (Costar) were used as the source of endothelial cells. The plates were prepared as previously described. Two sets of triplicate wells were left unstimulated as controls. Fourteen sets of triplicates were stimulated with IL-1β at 30 μg/ml in a 0.5 ml volume of EGM-UV. Cells were stimulated for exactly 4 hrs. HL-60 cells and LEC11 cells were cultured as described above.\n1. One 48 well Costar cluster dish containing HUVEC grown to confluence on gelatin was removed from the incubator and the medium in each well was removed with a pasteur pipette and replaced either with 0.5 ml fresh EGM-UV medium or with the same medium containing 30 μg/ml IL-1β,and the plate then returned to the incubator for 4 hrs.\n2. HL-60 cells and LEC11 cells were harvested and washed in CRPMI. A viable cell count was made using trypan blue. 6×10^6 cells of each cell type were radiolabeled as follows: 3×10^6 cells of each type were placed in each of two 10 ml test tubes and 300 μl of ^51 Cr (450 μCi) (New England Nuclear) was added to each tube. The tubes were allowed to incubate 1 hr. at 37° C. with gentle agitation.\n3. Radiolabeled HL-60 and LEC11 cells were washed 3× in CRPMI and pooled into one tube. […]"}, "[5]": {"target": "T2, P-Selectin (Homo sapiens, UniProt P16109)", "T2 construct": "endogenous in cells", "T2 sequence (P16109 42-830)": "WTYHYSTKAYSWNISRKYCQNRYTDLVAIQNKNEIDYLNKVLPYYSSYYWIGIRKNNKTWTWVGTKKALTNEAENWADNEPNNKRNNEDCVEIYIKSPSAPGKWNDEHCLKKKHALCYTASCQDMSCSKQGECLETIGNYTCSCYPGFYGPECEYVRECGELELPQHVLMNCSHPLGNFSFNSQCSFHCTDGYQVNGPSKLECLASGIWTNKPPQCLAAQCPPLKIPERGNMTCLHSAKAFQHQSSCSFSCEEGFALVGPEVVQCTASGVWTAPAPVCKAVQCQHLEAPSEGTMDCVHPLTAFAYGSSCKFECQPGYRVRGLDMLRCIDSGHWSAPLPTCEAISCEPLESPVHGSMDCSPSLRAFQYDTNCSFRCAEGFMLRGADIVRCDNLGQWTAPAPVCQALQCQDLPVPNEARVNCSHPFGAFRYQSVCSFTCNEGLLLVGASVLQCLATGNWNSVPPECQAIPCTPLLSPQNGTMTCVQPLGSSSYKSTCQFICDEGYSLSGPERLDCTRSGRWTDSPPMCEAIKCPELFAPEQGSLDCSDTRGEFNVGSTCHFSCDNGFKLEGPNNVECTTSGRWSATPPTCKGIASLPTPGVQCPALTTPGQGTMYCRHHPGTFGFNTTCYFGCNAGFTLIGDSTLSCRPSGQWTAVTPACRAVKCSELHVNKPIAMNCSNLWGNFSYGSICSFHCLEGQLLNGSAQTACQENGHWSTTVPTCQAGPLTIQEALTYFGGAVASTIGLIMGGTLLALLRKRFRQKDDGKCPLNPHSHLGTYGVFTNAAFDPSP", "test": "Glycolipid liposome inhibition of HL-60 cell adhesion to activated platelets", "format": "cell-based", "conditions": "liposomes, FIG. 7", "description": "The assays generally followed the protocol described in Larsen et al., Cell 63: 467-474 (1990), which is incorporated herein by reference.\nGlycosphingolipids and liposomes were prepared as described in Example IV. The platelets were prepared as described in Example V, except that blocking of Fc receptors was not performed. HL60 cells were prepared as described above.\n1. 20 μl of activated platelet preparation was placed in each of 28 1.5 ml microfuge tubes (14 duplicate samples).\n2. 20 μl of the diluted liposomes at […], 5 μg or 2 μg, or 20 μl of the control buffers, were added to the appropriate tube of each duplicate.\n3. The platelets were incubated with the liposome preparations for 20 min. at room temp.\n4. Neutrophils or HL-60 cells at 2×10^6 cells/ml were each added to one set of liposome-treated platelets. 20 μl of cell suspension were added to each tube.\n5. The tubes were mixed and allowed to stand at room temperature for 20 min. Then they were applied to a hemacytometer and the cells were scored as positive (2 or more platelets attached/cell) or negative (less than 2 platelets attached/cell)."}},
  "data": [
    {"compound": "CC(=O)N[C@H]1[C@H]([C@H](O)[C@H](O)CO)O[C@@](O[C@H]2[C@@H](O)[C@@H](CO)O[C@@H](O[C@H]3[C@H](O[C@@H]4O[C@@H](C)[C@@H](O)[C@@H](O)[C@@H]4O)[C@@H](NC(C)=O)C(O)O[C@@H]3CO)[C@@H]2O)(C(=O)O)C[C@@H]1O", "note": "(stereo partly drawn) [SLX-OH, NeuAcα2,3Gal,β1 4(Fucα1,3)GlcNAc-OH]", "values": [
      {"measurement": "reduction of permeability value", "setting": "[1]; P<0.001", "result": 43, "unit": "%"},
      {"measurement": "reduction of hemorrhage", "setting": "[1]; P<0.004", "result": 41, "unit": "%"},
      {"measurement": "reduction of MPO content", "setting": "[1]; P<0.006", "result": 35, "unit": "%"},
      {"measurement": "effect on IgG immune complex-induced neutrophil accumulation / lung injury", "setting": "[2]", "result": "blocked IgG"},
      {"measurement": "protection assessed by vascular permeability and hemorrhage", "setting": "[3]; FIG. 20, 100 μg", "result": "did not afford any protection from IgA immune complex induced lung injury"},
      {"measurement": "effect on IgA immune complex-induced neutrophil accumulation and pathological sequelae", "setting": "[3]; conclusion in words", "result": "not IgA"}
    ]},
    {"compound": "III^3 V^3 Fuc2 VI^3 NeuAcnLc6 [S-diLe^x]", "values": [
      {"measurement": "inhibition of adhesion of HL-60 cells to activated endothelial cells", "setting": "[4]", "result": "dramatically inhibited"},
      {"measurement": "reduction of HL-60 cell adhesion to activated endothelial cells", "setting": "[4]", "result": 70, "unit": "%"},
      {"measurement": "inhibition of adhesion of HL-60 cells to activated platelets", "setting": "[5]", "result": "dramatically inhibited"}
    ]},
    {"compound": "III^3 V^3 Fuc2 nLc6 [di-Le^x, reference compound]", "values": [
      {"measurement": "inhibition of adhesion of HL-60 cells to activated endothelial cells", "setting": "[4]", "result": "minimal inhibition"},
      {"measurement": "reduction of HL-60 cell adhesion to activated endothelial cells", "setting": "[4]", "result": 40, "unit": "%"},
      {"measurement": "inhibition of adhesion of HL-60 cells to activated platelets", "setting": "[5]", "result": "minimal inhibition"}
    ]}
  ]
}
